The source of these data is patent US10131702B2, “Glucagon-GLP-1-GIP triple agonist compounds” (priority 2013, dated 2018).

What all share (format): cell-based
The target of one experiment is T1, human GCG R (Homo sapiens, UniProt P47871).
T1 construct: expressed in transfected cells
The experiment can be described thus: cAMP induction in HEK293 cells expressing human GCG R (AlphaScreen cAMP kit). To be noted: average EC50, cAMP, HEK293 cells expressing human GCG R, read-out: GCG R (EC50 in nM). On the technique in general: Bead proximity is the source of the signal in Alpha formats.

The target of a further experiment is T2, human GLP-1 R (Homo sapiens, UniProt P43220).
T2 construct: expressed in transfected cells
Description: cAMP induction in HEK293 cells expressing human GLP-1 R (AlphaScreen cAMP kit).

The target of another experiment is T3, human GIP R (Homo sapiens, UniProt P48546).
T3 construct: expressed in transfected cells
T3 sequence (P48546 22-466): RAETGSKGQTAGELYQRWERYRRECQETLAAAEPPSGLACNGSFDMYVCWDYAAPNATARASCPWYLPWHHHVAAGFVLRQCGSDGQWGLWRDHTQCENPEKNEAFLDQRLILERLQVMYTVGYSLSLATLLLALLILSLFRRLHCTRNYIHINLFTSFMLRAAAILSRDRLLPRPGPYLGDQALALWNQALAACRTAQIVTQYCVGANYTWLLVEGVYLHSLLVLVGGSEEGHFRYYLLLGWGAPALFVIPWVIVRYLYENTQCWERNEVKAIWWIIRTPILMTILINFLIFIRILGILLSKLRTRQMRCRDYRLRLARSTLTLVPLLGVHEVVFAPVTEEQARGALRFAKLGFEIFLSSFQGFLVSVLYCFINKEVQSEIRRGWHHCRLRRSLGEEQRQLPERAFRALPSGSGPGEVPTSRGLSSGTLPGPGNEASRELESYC
The experiment can be described thus: cAMP induction in HEK293 cells expressing human GIP R (AlphaScreen cAMP kit). Particulars: read-out: GIP R (EC50 in nM).

Where [1] appears, read: Table 2b (most comprehensive data), average EC50, cAMP, HEK293 cells expressing human GLP-1 R, read-out: GLP1 R (EC50 in nM).
Setting [2] is: Table 2b (most comprehensive data), average EC50, cAMP.

Where two headings read alike, the source gives them in different places. Numbered stars: 1 amine (or outer) side, 2 acyl side, 3 side chain; on linkers, the order of the positions; unused ones are H or OH. Square brackets hold non-standard residues; d marks the D form. Side chains are listed from the residue outwards. Peptide text beside a SMILES is read from it. * marks the point of attachment. γGlu = O=C(O)[C@H](CCC(=O)[*:2])N[*:1]; Stearoyl = CCCCCCCCCCCCCCCCCC(=O)*; AEEA = NCCOCCOCC(=O)O; Aib = CC(C)(N)C(=O)O

For orientation: EC50 means the concentration giving half of the maximal effect.

T2 sequence (P43220 24-463): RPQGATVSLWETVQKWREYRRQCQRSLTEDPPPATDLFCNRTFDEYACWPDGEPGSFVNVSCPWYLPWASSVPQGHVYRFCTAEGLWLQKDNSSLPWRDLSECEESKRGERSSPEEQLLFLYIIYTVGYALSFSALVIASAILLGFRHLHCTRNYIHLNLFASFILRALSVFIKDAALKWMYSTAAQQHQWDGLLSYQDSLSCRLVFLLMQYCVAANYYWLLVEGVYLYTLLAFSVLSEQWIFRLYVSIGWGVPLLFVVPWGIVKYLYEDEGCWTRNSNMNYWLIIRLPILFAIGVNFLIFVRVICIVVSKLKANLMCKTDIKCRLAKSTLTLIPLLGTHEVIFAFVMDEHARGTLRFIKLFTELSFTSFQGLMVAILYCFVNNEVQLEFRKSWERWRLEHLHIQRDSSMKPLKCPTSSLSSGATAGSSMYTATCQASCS
T1 sequence (P47871 26-477): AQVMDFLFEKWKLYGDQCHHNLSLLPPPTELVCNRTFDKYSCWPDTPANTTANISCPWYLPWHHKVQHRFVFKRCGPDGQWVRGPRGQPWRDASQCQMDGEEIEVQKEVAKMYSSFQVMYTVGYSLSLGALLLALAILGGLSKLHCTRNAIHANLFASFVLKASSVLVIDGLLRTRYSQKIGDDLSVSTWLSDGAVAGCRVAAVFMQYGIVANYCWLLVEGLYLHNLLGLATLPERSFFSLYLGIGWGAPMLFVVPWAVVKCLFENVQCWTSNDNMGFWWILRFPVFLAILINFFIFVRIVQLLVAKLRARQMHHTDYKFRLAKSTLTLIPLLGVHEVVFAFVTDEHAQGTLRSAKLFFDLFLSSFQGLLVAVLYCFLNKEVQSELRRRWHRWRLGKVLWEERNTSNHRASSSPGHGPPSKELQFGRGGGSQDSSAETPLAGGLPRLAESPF

Take `CCCCCCCCCCCCCCCCCC(=O)N[C@@H](CCC(=O)NCCOCCOCC(=O)NCCOCCOCC(=O)NCCCC[C@H](NC(=O)[C@H](CCCCN)NC(=O)[C@H](CC(=O)O)NC(=O)[C@H](CC(C)C)NC(=O)[C@H](Cc1ccc(O)cc1)NC(=O)[C@@H](NC(=O)[C@H](CO)NC(=O)[C@H](Cc1ccc(O)cc1)NC(=O)[C@H](CC(=O)O)NC(=O)[C@H](CO)NC(=O)[C@@H](NC(=O)[C@H](Cc1ccccc1)NC(=O)[C@@H](NC(=O)CNC(=O)[C@H](CCC(N)=O)NC(=O)C(C)(C)NC(=O)[C@@H](N)Cc1ccc(O)cc1)[C@@H](C)O)[C@@H](C)O)[C@@H](C)CC)C(=O)N[C@@H](C)C(=O)N[C@@H](CCC(N)=O)C(=O)N[C@@H](CCCNC(=N)N)C(=O)N[C@@H](C)C(=O)N[C@@H](Cc1ccccc1)C(=O)N[C@H](C(=O)N[C@@H](CCC(=O)O)C(=O)N[C@@H](Cc1c[nH]c2ccccc12)C(=O)N[C@@H](CC(C)C)C(=O)N[C@@H](CC(C)C)C(=O)N[C@@H](C)C(=O)N[C@@H](CCC(N)=O)C(=O)NCC(=O)N1CCC[C@H]1C(=O)N[C@@H](CO)C(=O)N[C@@H](CO)C(=O)NCC(=O)N[C@@H](C)C(=O)N1CCC[C@H]1C(=O)N1CCC[C@H]1C(=O)N1CCC[C@H]1C(=O)N[C@@H](CO)C(N)=O)C(C)C)C(=O)O` [Compound 35] (H-Y[Aib]QGTFTSDYSIYLDKK([AEEA-AEEA-γGlu-Stearoyl])AQRAFVEWLLAQGPSSGAPPPS-NH2): the EC50 on human GCG R (Table 2b (most comprehensive data)) was 0.011 nM; on human GLP-1 R (setting [1]), 1.85 nM; at human GIP R (setting [2]), 0.012 nM.
For `CCCCCCCCCCCCCCCC(=O)N[C@@H](CCC(=O)NCCCC[C@H](NC(=O)[C@H](CO)NC(=O)[C@H](CC(=O)O)NC(=O)[C@H](CC(C)C)NC(=O)[C@H](Cc1ccc(O)cc1)NC(=O)[C@@H](NC(=O)[C@H](CO)NC(=O)[C@H](Cc1ccc(O)cc1)NC(=O)[C@H](CC(=O)O)NC(=O)[C@H](CO)NC(=O)[C@@H](NC(=O)[C@H](Cc1ccccc1)NC(=O)[C@@H](NC(=O)CNC(=O)[C@H](CCC(N)=O)NC(=O)C(C)(C)NC(=O)[C@@H](N)Cc1ccc(O)cc1)[C@@H](C)O)[C@@H](C)O)[C@@H](C)CC)C(=O)N[C@@H](C)C(=O)N[C@@H](C)C(=O)N[C@@H](Cc1c[nH]cn1)C(=O)N[C@@H](CC(=O)O)C(=O)N[C@@H](Cc1ccccc1)C(=O)N[C@H](C(=O)N[C@@H](CCC(=O)O)C(=O)N[C@@H](Cc1c[nH]c2ccccc12)C(=O)N[C@@H](CC(C)C)C(=O)N[C@@H](CC(C)C)C(=O)N[C@@H](CO)C(=O)N[C@@H](C)C(=O)NCC(=O)N1CCC[C@H]1C(=O)N[C@@H](CO)C(=O)N[C@@H](CO)C(=O)NCC(=O)N[C@@H](C)C(=O)N1CCC[C@H]1C(=O)N1CCC[C@H]1C(=O)N1CCC[C@H]1C(=O)N[C@@H](CO)C(N)=O)C(C)C)C(=O)O` [Compound 29] (HELM PEPTIDE1{Y.[Aib].Q.G.T.F.T.S.D.Y.S.I.Y.L.D.S.K.A.A.H.D.F.V.E.W.L.L.S.A.G.P.S.S.G.A.P.P.P.S.[am]}|PEPTIDE2{[CCCCCCCCCCCCCCCC(=O)[*:2]].[gGlu]}$PEPTIDE1,PEPTIDE2,17:R3-2:R2$$$V2.0), the EC50 at human GCG R (Table 2) was 0.15 nM; on human GLP-1 R, 0.05 nM; on human GLP-1 R (setting [1]), 0.15 nM; at human GIP R (Table 2, average EC50, cAMP), 0.06 nM; on human GIP R (setting [2]), 0.05 nM.
